Data on 2 molecules can be found in US8716521B2 (priority 2008, dated 2014).

Where a name gives a salt, the structure may show the parent alone. Read-outs that look alike come from different tables or passages of the source. A value given as a limit tells only on which side of the number the result lay.

Experiment in data set [1]: not given
The source holds these as a separate data set.

The nature of data set [2]: Stability in solution at 1 mg/mL, effect of pH (vinyl sulfone generation). In kind it is physicochemical. To be noted: 1 mg/mL in 0.1 M citrate buffer. Here is the method:
A stability study was performed by monitoring vinyl sulfone generation. Canfosfamide hydrochloride was dissolved at 1 mg/mL into 0.1 M citrated buffer from pH 4.5 to pH 6.5. The solutions were incubated at 25° C. for 24 hours. Vinyl sulfone generation was monitored.

The nature of data set [3]: Vinyl sulfone degradation on titration with NaOH.
A short description of data set [4]: Dissolution rate and vinyl sulfone generation during compounding at different temperatures. The format is physicochemical. To be noted: for dissolution time: 50 mL batch size. From the text:
The following items are some critical issues for the compounding of the drug product. • If the solution pH is higher than target pH, it can be titrated with 1.0 NHCL to the target pH. If the pH is too low, it will not be possible to back titrate with NaOH due to the sensibility of canfosfamide hydrochloride to alkaline environment. • Due to the acidity of the drug substance, the rate of dissolution of drug substance influences the pH of the compounding solution. A quick dissolution could reduce the pH faster and therefore reduce the time of exposure of the drug to high pH. […] The solution was then analyzed by HPLC.
An additional study of two liter batch size was conducted. Canfosfamide hydrochloride was dissolved into three batches of pH 6.5, 0.1 M citrate buffer and monitored at different temperatures; 5° C., 20° C. and 40° C. […] In the second batch at 20° C. (room temperature), the drug was totally dissolved after 20 minutes. […] The third batch consisted of adding drug at room temperature and allowing the temperature to increase to 40° C. over 90 minutes. […] These experiments support controlling the compounding procedure at room temperature until all drug is dissolved and filtered.

Data set [5] can be described thus: pH and osmolality of 50 mg/mL solution in citrate buffer.
Excerpt: The solubility of canfosfamide hydrochloride depends on the concentration and initial pH of buffer system.
For data set [6] the following is noted: aqueous solution in the narrow pH range of solubility.

Regarding `N[C@@H](CCC(=O)N[C@@H](CS(=O)(=O)CCOP(=O)(N(CCCl)CCCl)N(CCCl)CCCl)C(=O)N[C@@H](C(=O)O)c1ccccc1)C(=O)O` [canfosfamide hydrochloride], the “amount dissolved by citrate buffer” value (0.1 M citrate buffer at pH 6.5) is listed as “approximately 100 mg/mL”. The “pH at which soluble” value (aqueous) is recorded as “above 4.2”. Besides, the “pH at which stability is limited” value (aqueous) is recorded as greater than 5.0. The “% Purity 25° C.” value is reported as 69% in data set [1] (3 Month, bulk solution 50 mg/mL at pH 4.6, data is ± 2%); 92% in data set [1] (Day 0, bulk solution 50 mg/mL at pH 4.6, data is ± 2%); 93% in data set [1] (Day 3, bulk solution 50 mg/mL at pH 4.6, data is ± 2%); 89% in data set [1] (Day 7, bulk solution 50 mg/mL at pH 4.6, data is ± 2%); 84% in data set [1] (Day 28, bulk solution 50 mg/mL at pH 4.6, data is ± 2%); 89% in data set [1] (Day l, bulk solution 50 mg/mL at pH 4.6, data is ± 2%). The “Percent vinyl sulfone at 25° C.” value in data set [2] (pH 4.5, 6 hrs) is given as 0.1%; in data set [2] (pH 4.5, 24 hrs), 0.4%; in data set [2] (pH 5.0, 6 hrs), 0.2%; in data set [2] (pH 5.0, 24 hrs) it was 1.1%; in data set [2] (pH 5.5, 6 hrs), 0.6%; in data set [2] (pH 5.5, 24 hrs), 2.9%. Besides, the “Percent vinyl sulfone at 25° C.” value in data set [2] (pH 6.0, 6 hrs) is 1.7%; in data set [2] (pH 6.0, 24 hrs), 8.2%; in data set [2] (pH 6.5, 6 hrs) it was 6.6%; in data set [2] (pH 6.5, 24 hrs) it was 24.2%. Further, the “content of vinyl sulfone before titration” value in data set [3] (50 mg/mL in pH 4.3 citrate buffer) came to 0.64%. Further, the “content of vinyl sulfone after titration” value amounted to 1.3% in data set [3] (50 mg/mL in pH 4.3 citrate buffer titrated with 0.1 N NaOH to pH 4.5) and 6.5% in data set [3] (50 mg/mL in pH 4.3 citrate buffer titrated with 1.0 N NaOH to pH 4.5). For the same molecule, the solubility in the data set “physchem” (citrate buffer, pH 5.5, aqueous buffer) is 174 mg/mL; in the data set “physchem” (water), roughly 2 mg/mL. Further, the dissolution time in data set [4] (5° C.) was 45 min; in data set [4] (room temperature), 25 min. For the same molecule, the “vinyl sulfone generated at 5° C. versus room temperature” value in data set [4] (during dissolution, HPLC) is “not significantly different”. Further, the dissolution observation result in data set [4] (two liter batch, pH 6.5 0.1 M citrate buffer, 5° C., after 80 minutes) is given as “minor particles were observed”. Moreover, the “time to total dissolution” value in data set [4] (two liter batch, pH 6.5 0.1 M citrate buffer, 20° C. (room temperature)) is 20 min. For the same molecule, the vinyl sulfone generated entry in data set [4] (two liter batch, temperature increased from room temperature to 40° C. over 90 minutes) is listed as “higher than the two previous batches”. In addition, in data set [5] (50 mg/mL dissolved in 0.1 M citrate buffer at pH 6.5), the pH of solution result is on record as “about 4.6”. Also, the osmolality result in data set [5] (50 mg/mL in 100 mM citrate buffer) is listed as “about 400 mM”.

`N[C@@H](CCC(=O)N[C@@H](CS(=O)(=O)CCOP(=O)(N(CCCl)CCCl)N(CCCl)CCCl)C(=O)N[C@@H](C(=O)O)c1ccccc1)C(=O)O` [Canfosfamide]: the “time aqueous formulations are stable before decomposition products are observed” value in data set [6] fell in the range of 6 to 12 h.
